Reference: ChEMBL document CHEMBL4680171, “Oxadiazolylthiazoles as novel and selective antifungal agents” (Eur J Med Chem, 2020)
In brackets after ≈: the same amount, converted by molar mass. Activity calls are given as the source filed them. No cut-off for these calls is given here.

Columns and labels:
[1] = Selectivity index, ratio of CC50 for African green monkey Vero cells to MIC for antifungal activity against Candida glabrata ATCC 66032; assay type: toxicity; conditions: read-out: Selectivity Index
[2] = Selectivity index, ratio of maximum non-toxic concentration for human Caco-2 cells to MIC for antifungal activity against Cryptococcus gattii NR43210; assay type: toxicity; conditions: read-out: Selectivity Index
[3] = Selectivity index, ratio of maximum non-toxic concentration for human Caco-2 cells to MIC for antifungal activity against Candida parapsilosis ATCC 22019; assay type: toxicity; conditions: read-out: Selectivity Index
Escherichia coli = test: Antibacterial activity against Escherichia coli BW25113 assessed as reduction in bacterial growth by CLSI based broth microdilution method; assay type: functional
[4] = Selectivity index, ratio of maximum non-toxic concentration for human Caco-2 cells to MIC for antifungal activity against fluconazole-resistant Candida auris 383; assay type: toxicity; conditions: read-out: Selectivity Index
Staphylococcus aureus = test: Antibacterial activity against methicillin resistant Staphylococcus aureus subsp. aureus USA300 assessed as reduction in bacterial growth by CLSI based broth microdilution method; assay type: functional
[5] = Selectivity index, ratio of maximum non-toxic concentration for human Caco-2 cells to MIC for antifungal activity against fluconazole-resistant Candida albicans NR29448; assay type: toxicity; conditions: read-out: Selectivity Index
[6] = Selectivity index, ratio of CC50 for African green monkey Vero cells to MIC for antifungal activity against Candida krusei CAB 396420; assay type: toxicity; conditions: read-out: Selectivity Index
[7] = Selectivity index, ratio of CC50 for African green monkey Vero cells to MIC for antifungal activity against Candida albicans ATCC 10231; assay type: toxicity; conditions: read-out: Selectivity Index
Candida albicans [8] = test: Antibiofilm activity against 24 hrs preformed biofilm of Candida albicans NR29448 assessed as disruption of mature biofilm at 64 ug/ml incubated for 24 hrs by crystal violet staining based spectrophotometry relative to control; assay type: functional; conditions: dose 64 µg/ml
[9] = Cytotoxicity against human Caco-2 cells assessed as cell viability up to 64 ug/ml incubated for 24 hrs by MTS assay; assay type: cell-based; conditions: dose <=64 µg/ml, read-out: Activity
Cryptococcus neoformans [10] = test: Antifungal activity against Cryptococcus neoformans NR41298 assessed as reduction in fungal growth incubated for 48 hrs by CLSI based broth microdilution method; assay type: functional
[11] = system: Cryptococcus gattii species complex; test: Antifungal activity against Cryptococcus gattii NR43209 assessed as reduction in fungal growth incubated for 48 hrs by CLSI based broth microdilution method; assay type: functional, Cryptococcus bacillisporus
Clostridioides difficile = test: Antibacterial activity against Clostridium difficile BAA1870 assessed as reduction in bacterial growth by CLSI based broth microdilution method; assay type: functional
[12] = Selectivity index, ratio of maximum non-toxic concentration for human Caco-2 cells to MIC for antifungal activity against Aspergillus fumigatus NR 35304; assay type: toxicity; conditions: read-out: Selectivity Index
Nakaseomyces glabratus [13] = test: Antifungal activity against Candida glabrata ATCC 66032 assessed as reduction in fungal growth incubated for 24 hrs by CLSI based broth microdilution method; assay type: functional
Candida albicans [14] = test: Antifungal activity against Candida albicans SS5314 assessed as reduction in fungal growth incubated for 24 hrs by CLSI based broth microdilution method; assay type: functional
[15] = Selectivity index, ratio of maximum non-toxic concentration for human Caco-2 cells to MIC for antifungal activity against Candida krusei CAB 396420; assay type: toxicity; conditions: read-out: Selectivity Index
Candida albicans [16] = test: Antifungal activity against Candida albicans SS5314 assessed as reduction in fungal growth measured after 10 passages by CLSI based broth microdilution method; assay type: functional, organism-based
[17] = system: Cryptococcus gattii species complex; test: Antifungal activity against Cryptococcus gattii NR43210 assessed as reduction in fungal growth incubated for 48 hrs by CLSI based broth microdilution method; assay type: functional, Cryptococcus bacillisporus
Candida parapsilosis [18] = test: Antifungal activity against Candida parapsilosis ATCC 22019 assessed as reduction in fungal growth incubated for 24 hrs by CLSI based broth microdilution method; assay type: functional; conditions: Lodderomyces parapsilosis
Lactobacillus crispatus = test: Antibacterial activity against Lactobacillus crispatus HM-370 assessed as reduction in bacterial growth by CLSI based assay
Pichia kudriavzevii = test: Antifungal activity against Candida krusei CAB 396420 assessed as reduction in fungal growth incubated for 24 hrs by CLSI based broth microdilution method; assay type: functional
Aspergillus fumigatus = test: Antifungal activity against Aspergillus fumigatus NR 35304 assessed as reduction in fungal growth incubated for 24 hrs by CLSI based broth microdilution method; assay type: functional
[19] = Selectivity index, ratio of maximum non-toxic concentration for human Caco-2 cells to MIC for antifungal activity against Candida glabrata ATCC 66032; assay type: toxicity; conditions: read-out: Selectivity Index
[20] = Selectivity index, ratio of maximum non-toxic concentration for human Caco-2 cells to MIC for antifungal activity against fluconazole-resistant Candida auris 381; assay type: toxicity; conditions: read-out: Selectivity Index
[Candida] auris = Antifungal activity against fluconazole-resistant Candida auris 383 assessed as reduction in fungal growth incubated for 24 hrs by CLSI based broth microdilution method; assay type: functional; conditions: Candidozyma auris
[21] = Selectivity index, ratio of maximum non-toxic concentration for human Caco-2 cells to MIC for antifungal activity against Cryptococcus neoformans NR41298; assay type: toxicity; conditions: read-out: Selectivity Index
Candida parapsilosis [22] = test: Antifungal activity against Candida parapsilosis CAB 502638 assessed as reduction in fungal growth incubated for 24 hrs by CLSI based broth microdilution method; assay type: functional; conditions: Lodderomyces parapsilosis
[23] = Selectivity index, ratio of CC50 for African green monkey Vero cells to MIC for antifungal activity against Candida parapsilosis ATCC 22019; assay type: toxicity; conditions: read-out: Selectivity Index
Candida albicans [24] = test: Antifungal activity against Candida albicans ATCC 10231 assessed as reduction in fungal growth incubated for 24 hrs by CLSI based broth microdilution method; assay type: functional
[25] = Selectivity index, ratio of CC50 for African green monkey Vero cells to MIC for antifungal activity against fluconazole-resistant Candida auris 381; assay type: toxicity; conditions: read-out: Selectivity Index
Nakaseomyces glabratus [26] = test: Antifungal activity against Candida glabrata ATCC MYA-2950 assessed as reduction in fungal growth incubated for 24 hrs by CLSI based broth microdilution method; assay type: functional
[27] = Selectivity index, ratio of CC50 for African green monkey Vero cells to MIC for antifungal activity against fluconazole-resistant Candida albicans NR29448; assay type: toxicity; conditions: read-out: Selectivity Index
Cryptococcus neoformans [28] = test: Antifungal activity against Cryptococcus neoformans NR41300 assessed as reduction in fungal growth incubated for 48 hrs by CLSI based broth microdilution method; assay type: functional
[29] = Selectivity index, ratio of CC50 for African green monkey Vero cells to MIC for antifungal activity against Cryptococcus neoformans NR41300; assay type: toxicity; conditions: read-out: Selectivity Index
Cryptococcus neoformans [30] = test: Antifungal activity against Cryptococcus neoformans NR48770 assessed as reduction in fungal growth incubated for 48 hrs by CLSI based broth microdilution method; assay type: functional
[31] = Selectivity index, ratio of CC50 for African green monkey Vero cells to MIC for antifungal activity against Aspergillus fumigatus NR 35303; assay type: toxicity; conditions: read-out: Selectivity Index
[32] = Selectivity index, ratio of CC50 for African green monkey Vero cells to MIC for antifungal activity against Candida krusei ATCC 34135; assay type: toxicity; conditions: read-out: Selectivity Index
[33] = Selectivity index, ratio of maximum non-toxic concentration for human Caco-2 cells to MIC for antifungal activity against Candida glabrata ATCC MYA-2950; assay type: toxicity; conditions: read-out: Selectivity Index
[34] = Selectivity index, ratio of CC50 for African green monkey Vero cells to MIC for antifungal activity against Candida glabrata ATCC MYA-2950; assay type: toxicity; conditions: read-out: Selectivity Index
[35] = Selectivity index, ratio of maximum non-toxic concentration for human Caco-2 cells to MIC for antifungal activity against Candida krusei ATCC 34135; assay type: toxicity; conditions: read-out: Selectivity Index
Candida albicans [36] = test: Fungistatic activity against Candida albicans SS5314 at 5 to 10x MIC measured for 36 hrs by time kill assay; assay type: functional, organism-based

Cc1nc(-c2ccc(C(C)(C)C)cc2)sc1-c1nnc(N[C@@H]2CCCC[C@@H]2N)o1 (relative stereo)
selectivity ratio [1]: ≤ 64
selectivity ratio [2]: ≤ 64
selectivity ratio [3]: ≤ 64
MIC (Escherichia coli): > 64 µg/mL
selectivity ratio [4]: ≤ 64
MIC (Staphylococcus aureus): > 64 µg/mL
selectivity ratio [5]: ≤ 64
selectivity ratio [6]: ≤ 64
selectivity ratio [7]: ≤ 64
Activity (Candida albicans [8]): 16%
viability at 24 h [9]: 100%
MIC (Cryptococcus neoformans [10]): 2 µg/mL (≈ 4.86 µM)
MIC [11]: 1 µg/mL (≈ 2.43 µM)
MIC (Clostridioides difficile): 64 µg/mL (≈ 156 µM)
selectivity ratio [12]: ≤ 64
MIC (Nakaseomyces glabratus [13]): 0.5 µg/mL (≈ 1.21 µM)
MIC (Candida albicans [14]): 2 µg/mL (≈ 4.86 µM)
selectivity ratio [15]: ≤ 64
Activity (Candida albicans [16]): Active
MIC [17]: 1 µg/mL (≈ 2.43 µM)
MIC (Candida parapsilosis [18]): 1 µg/mL (≈ 2.43 µM)
MIC (Lactobacillus crispatus): > 128 µg/mL
MIC (Pichia kudriavzevii): 1 µg/mL (≈ 2.43 µM)
MIC (Aspergillus fumigatus): 4 µg/mL (≈ 9.72 µM)
selectivity ratio [19]: ≤ 64
selectivity ratio [20]: ≤ 64
MIC ([Candida] auris): 2 µg/mL (≈ 4.86 µM)
selectivity ratio [21]: ≤ 64
MIC (Candida parapsilosis [22]): 1 µg/mL (≈ 2.43 µM)
selectivity ratio [23]: ≤ 64
MIC (Candida albicans [24]): 8 µg/mL (≈ 19.4 µM)
selectivity ratio [25]: ≤ 64
MIC (Nakaseomyces glabratus [26]): 0.125 µg/mL (≈ 0.304 µM)
selectivity ratio [27]: ≤ 64
MIC (Cryptococcus neoformans [28]): 2 µg/mL (≈ 4.86 µM)
selectivity ratio [29]: ≤ 64
MIC (Cryptococcus neoformans [30]): 1 µg/mL (≈ 2.43 µM)
selectivity ratio [31]: ≤ 64
selectivity ratio [32]: ≤ 64
selectivity ratio [33]: ≤ 64
selectivity ratio [34]: ≤ 64
selectivity ratio [35]: ≤ 64
Activity (Candida albicans [36]): Active
